Data as given in the supplement of paper PMC11061612.

Experiments:
Test in all cases: Bliss excess, mean over the matrix (fraction); higher = more synergy
[1] = tested on: SW13 (Other Solid Carcinomas)
Summary of the method: (§1)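 After 24 hours at 37°C and 5% CO2 in 1536-well plates, cells in DMEM/F12 or RPMI plus 10% FBS received two-drug dose matrices for 72 hours. Viability came from CellTiter-Glo 2.0 luminescence and was scaled as inhibition, anchored at 0 by vehicle wells and at 1 by blank wells. Combination Emax is taken as the second-highest inhibition in the matrix, and Bliss excess as the observed combination effect less EA + EB − EA·EB, with EA and EB the single-agent effects.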

[2] = tested on: BT-549 (Breast Carcinoma)
Summary of the method: as §1

[3] = tested on: AMO-1 (Plasma Cell Myeloma)
Summary of the method: as §1

[4] = tested on: OVCAR-4 (Ovarian Carcinoma)
Summary of the method: as §1

[5] = tested on: MLMA (Other Blood Carcinomas)
Summary of the method: as §1

[6] = tested on: EFM-19 (Breast Carcinoma)
Summary of the method: as §1

UACC-62 (Melanoma) = tested on: UACC-62 (Melanoma)
Summary of the method: as §1

TGW (Neuroblastoma) = tested on: TGW (Neuroblastoma)
Summary of the method: as §1

[7] = tested on: KARPAS-299 (T-Cell Non-Hodgkin's Lymphoma)
Summary of the method: as §1

[8] = tested on: Hs-766T (Pancreatic Carcinoma)
Summary of the method: as §1

[9] = tested on: LU-65 (Non-Small Cell Lung Carcinoma)
Summary of the method: as §1

[10] = tested on: OE19 (Esophageal Adenocarcinoma)
Summary of the method: as §1

[11] = tested on: KYSE-450 (Esophageal Squamous Cell Carcinoma)
Summary of the method: as §1

[12] = tested on: OSC-20 (Oral Cavity Carcinoma)
Summary of the method: as §1

[13] = tested on: NCI-H727 (Other Solid Carcinomas)
Summary of the method: as §1

[14] = tested on: C-4-I (Cervical Carcinoma)
Summary of the method: as §1

[15] = tested on: HSC-4 (Oral Cavity Carcinoma)
Summary of the method: as §1

[16] = tested on: SCC-15 (Oral Cavity Carcinoma)
Summary of the method: as §1

[17] = tested on: NCI-H1915 (Non-Small Cell Lung Carcinoma)
Summary of the method: as §1

D-263MG (Glioblastoma) = tested on: D-263MG (Glioblastoma)
Summary of the method: as §1

Structure (SMILES)	Bliss excess [1]	Bliss excess [2]	Bliss excess [3]	Bliss excess [4]	Bliss excess [5]	Bliss excess [6]	Bliss excess (UACC-62 (Melanoma))	Bliss excess (TGW (Neuroblastoma))	Bliss excess [7]	Bliss excess [8]	Bliss excess [9]	Bliss excess [10]	Bliss excess [11]	Bliss excess [12]	Bliss excess [13]	Bliss excess [14]	Bliss excess [15]	Bliss excess [16]	Bliss excess [17]	Bliss excess (D-263MG (Glioblastoma))
CCN(CCO)CCCOc1ccc2c(Nc3cc(CC(=O)Nc4cccc(F)c4)[nH]n3)ncnc2c1 [AZD2811] + C=CCn1c(=O)c2cnc(Nc3ccc(N4CCN(C)CC4)cc3)nc2n1-c1cccc(C(C)(C)O)n1 [AZD1775] (first compound max 1 µM, partner max 1 µM)	0.0821	0.017	-0.0276	0.0107	0.0432	-0.0269	-0.029	-0.0083	0.0057	-0.0445	-0.0557	-0.0152	-0.0206	-0.0449	-0.0909	0.0264	-0.0467	0.0237	0.0056	0.0698
CCN(CCO)CCCOc1ccc2c(Nc3cc(CC(=O)Nc4cccc(F)c4)[nH]n3)ncnc2c1 [AZD2811] + C[C@@H]1COCCN1C2=NC(=NC(=C2)C3(CC3)[S@](=N)(=O)C)C4=C5C=CNC5=NC=C4 [AZD6738] (first compound max 1 µM, 7x7, partner max 10 µM)	0.0474	0.0066	-0.0135	-0.0179	-0.0692	-0.0478	-0.0338	-0.0211	-0.0024	-0.0734	-0.0777	-0.0264	-0.0621	0.0279	-0.0849	-0.0263	-0.0687	-0.0478	0.0021	-0.0611
CCN(CCO)CCCOc1ccc2c(Nc3cc(CC(=O)Nc4cccc(F)c4)[nH]n3)ncnc2c1 [AZD2811] + O=C(c1cc(Cc2n[nH]c(=O)c3ccccc23)ccc1F)N1CCN(C(=O)C2CC2)CC1 [Olaparib] (first compound max 1 µM, 7x7, partner max 10 µM)	0.0345	-0.0015	0.0193	0.0234	-0.0191	-0.0669	-0.004	-0.0236	0.0298	-0.0415	0.0014	0.0454	-0.0135	-0.0196	-0.0184	0.0328	-0.0347	-0.0376	0.025	-0.0018
CN(CCO)CC[C@H](CSc1ccccc1)Nc1ccc(S(=O)(=O)NC(=O)c2ccc(N3CCC([C@@H](O)c4ccccc4-c4ccc(Cl)cc4)CC3)cc2)cc1S(=O)(=O)C(F)(F)F [AZD4320] + CN(C)CCCOc1ccc(-c2ccc3ncc4c(c3c2)n(C2CCOCC2)c(=O)n4C)cn1 [AZD0156] (first compound max 1 µM, 7x7, partner max 1 µM)	-0.019	-0.0354	-0.0217	-0.0155	0.0214	-0.0491	-0.0368	-0.0068	0.0129	-0.087	-0.016	-0.086	-0.0485	-0.0595	-0.0606	-0.0024	-0.0579	-0.0538	0.0196	-0.0256
COc1nnc2ccc(N3CCC(c4ccc(OCCN5CCN(C)C(=O)[C@H]5C)cc4)CC3)nn12 [AZD5153] + C=CCn1c(=O)c2cnc(Nc3ccc(N4CCN(C)CC4)cc3)nc2n1-c1cccc(C(C)(C)O)n1 [AZD1775] (first compound max 1 µM, partner max 1 µM)	-0.0336	-0.0585	-0.0881	-0.0935	-0.107	-0.026	-0.0529	-0.0689	-0.0336	-0.0369	-0.0806	-0.0441	-0.0699	0.0068	-0.0299	-0.109	-0.0852	-0.0427	-0.0565	-0.0619
COc1nnc2ccc(N3CCC(c4ccc(OCCN5CCN(C)C(=O)[C@H]5C)cc4)CC3)nn12 [AZD5153] + CC1(C)CCC(CN2CCN(c3ccc(C(=O)NS(=O)(=O)c4ccc(NCC5CCOCC5)c([N+](=O)[O-])c4)c(Oc4cnc5[nH]ccc5c4)c3)CC2)=C(c2ccc(Cl)cc2)C1 [Venetoclax] (first compound max 1 µM, 7x7, partner max 1 µM)	-0.0458	-0.0031	-0.0483	-0.0104	-0.0084	-0.0442	-0.0271	0.0081	-0.0419	-0.0487	-0.072	0.0029	-0.0404	-0.0554	-0.0558	-0.05	-0.0705	-0.0681	-0.0659	-0.0613
COc1nnc2ccc(N3CCC(c4ccc(OCCN5CCN(C)C(=O)[C@H]5C)cc4)CC3)nn12 [AZD5153] + CCN(CCO)CCCOc1ccc2c(Nc3cc(CC(=O)Nc4cccc(F)c4)[nH]n3)ncnc2c1 [AZD2811] (first compound max 1 µM, 7x7, partner max 1 µM)	-0.0368	-0.0576	-0.0109	-0.0568	-0.0434	-0.0262	-0.0564	-0.109	-0.0009	-0.0263	-0.0399	-0.0026	-0.0527	-0.0785	-0.0469	0.0165	-0.129	-0.0546	-0.0764	-0.0231
COc1nnc2ccc(N3CCC(c4ccc(OCCN5CCN(C)C(=O)[C@H]5C)cc4)CC3)nn12 [AZD5153] + C[C@@H]1COCCN1C2=NC(=NC(=C2)C3(CC3)[S@](=N)(=O)C)C4=C5C=CNC5=NC=C4 [AZD6738] (first compound max 1 µM, 7x7, partner max 10 µM)	-0.022	-0.0139	-0.0361	0.0127	-0.111	0.0541	0.0179	-0.0601	0.0074	-0.0137	-0.0292	-0.0416	0.0295	-0.0201	0.0364	0.0654	-0.0215	0.0084	-0.0054	0.0106
COc1nnc2ccc(N3CCC(c4ccc(OCCN5CCN(C)C(=O)[C@H]5C)cc4)CC3)nn12 [AZD5153] + Cc1c2c(nn1C)CSCc1cc(n(C)n1)CSc1cc(c3ccccc3c1)OCCCc1c(C(=O)O)n(C)c3c-2c(Cl)ccc13 [AZD5991] (first compound max 1 µM, 7x7, partner max 1 µM)	0.0258	0.0452	-0.0514	-0.0152	-0.0085	0.059	0.0084	-0.0523	-0.0277	-0.0369	-0.0445	-0.0322	-0.0579	-0.0091	-0.0398	0.0867	-0.101	-0.0167	-0.0343	0.105
COc1nnc2ccc(N3CCC(c4ccc(OCCN5CCN(C)C(=O)[C@H]5C)cc4)CC3)nn12 [AZD5153] + Cn1cnc2c(F)c(Nc3ccc(Br)cc3Cl)c(C(=O)NOCCO)cc21 [Selumetinib] (first compound max 1 µM, 7x7, partner max 10 µM)	0.0304	-0.0019	-0.0076	-0.0214	-0.0447	-0.0565	0.0397	-0.0392	0.0528	-0.0627	0.031	-0.02	0.025	-0.0816	-0.0146	0.0398	-0.0246	0.032	-0.0186	0.0205
Cc1c2c(nn1C)CSCc1cc(n(C)n1)CSc1cc(c3ccccc3c1)OCCCc1c(C(=O)O)n(C)c3c-2c(Cl)ccc13 [AZD5991] + C1CN(CCC1(C(=O)N[C@@H](CCO)C2=CC=C(C=C2)Cl)N)C3=NC=NC4=C3C=CN4 [Capivasertib] (first compound max 1 µM, 7x7, partner max 3 µM)	0.0419	0.0274	0.0178	-0.0114	0.0394	0.0003	0.0121	0.0078	0.0078	-0.0994	-0.013	-0.0273	-0.009	0.0036	0.0322	0.0117	-0.0327	0.0106	0.0103	0.083
Cc1c2c(nn1C)CSCc1cc(n(C)n1)CSc1cc(c3ccccc3c1)OCCCc1c(C(=O)O)n(C)c3c-2c(Cl)ccc13 [AZD5991] + C=CCn1c(=O)c2cnc(Nc3ccc(N4CCN(C)CC4)cc3)nc2n1-c1cccc(C(C)(C)O)n1 [AZD1775] (first compound max 1 µM, partner max 1 µM)	0.0002	0.024	-0.0189	0.0117	-0.0326	0.054	0.0675	-0.0538	-0.0032	0.0172	-0.118	-0.0082	0.025	-0.0115	-0.0171	0.0267	-0.0805	-0.0365	-0.0552	-0.0168
